Laboratory results taken from patent US10961228B2, “JAK1 selective inhibitors” (AstraZeneca AB, priority 2017, dated 2021).

Tests used:
[1] = biological target: recombinant JAK3 (amino acids 781-1124) (Homo sapiens (Human), UniProt P52333); assay: Enzyme inhibition studies, JAK3 (5 mM ATP, Caliper); assay type: biochemical
Procedure: (§1) JAK enzyme was expressed as N-terminal GST fusion in insect cells and purified by glutathione-affinity and size-exclusion chromatographies. Enzymes were assayed at their approximated high end of physiological ATP concentration of 5 mM, in the presence of inhibitor dosed at 30, 3, 0.3, 0.03, 0.003 and 0 μM final test concentrations.
(§2) Phosphorylated and unphosphotylated peptides were separated and quantified by a Caliper LC3000 system (Caliper Life Sciences, MA) for calculating percent inhibition.

[2] = tested on: IL-13 induced STAT6 promotor luciferase reporter in U937 monocytes (U937-STAT6-Luc); assay: Cellular interleukin (IL-13) induced JAK-STAT6-luciferase assay (pSTAT6); assay type: cell-based; settings: Homo sapiens, U-937; IL-13 induced STAT6-luciferase, U937-STAT6-Luc cells
Procedure: Cells were harvested by centrifugation at 250 g for 5 min and resuspended in Assay buffer (20 mM HEPES, 1×HBSS and 0.1% BSA) to 1000 cells pr μl. For stimulation of cells was used interleukin (IL-13) also dissolved in Assay buffer to […]. […] Test and control compounds were applied to assay plates (low vol white 384-well plates) in serial dilutions from 10 mM to 0.5 nM at 5 nl pr well in DMSO.
To each well was added 4 μl cells and 4 μl interleukin (IL-13) and the plates were sealed and incubated at 37° C. for 4½ h and then at room temperature for 30 min. The assay was developed by addition of 4 μl pr well of SteadyGlo (Promega) and after […] the plates were read at an Envision plate reader with luminescence filter.

[3] = biological target: recombinant JAK2 (amino acids 831-1132) (Homo sapiens (Human), UniProt O60674); assay: Enzyme inhibition studies, JAK2 (5 mM ATP, Caliper); assay type: biochemical
Chain of recombinant JAK2 (amino acids 831-1132) (O60674 831-1132): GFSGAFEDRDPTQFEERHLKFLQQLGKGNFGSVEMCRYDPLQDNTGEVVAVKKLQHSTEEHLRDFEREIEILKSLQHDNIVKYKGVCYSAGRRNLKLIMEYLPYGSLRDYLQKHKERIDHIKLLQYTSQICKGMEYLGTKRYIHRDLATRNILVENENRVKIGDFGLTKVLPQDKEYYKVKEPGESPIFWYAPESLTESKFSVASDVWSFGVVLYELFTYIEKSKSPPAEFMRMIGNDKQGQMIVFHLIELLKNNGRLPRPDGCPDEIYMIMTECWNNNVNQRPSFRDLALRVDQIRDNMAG
Procedure: as §1, §2

[4] = biological target: recombinant JAK1 (amino acids 866-1154) (Homo sapiens (Human), UniProt P23458); assay: Enzyme inhibition studies, JAK1 (5 mM ATP, Caliper); assay type: biochemical
Chain of recombinant JAK1 (amino acids 866-1154) (P23458 866-1154): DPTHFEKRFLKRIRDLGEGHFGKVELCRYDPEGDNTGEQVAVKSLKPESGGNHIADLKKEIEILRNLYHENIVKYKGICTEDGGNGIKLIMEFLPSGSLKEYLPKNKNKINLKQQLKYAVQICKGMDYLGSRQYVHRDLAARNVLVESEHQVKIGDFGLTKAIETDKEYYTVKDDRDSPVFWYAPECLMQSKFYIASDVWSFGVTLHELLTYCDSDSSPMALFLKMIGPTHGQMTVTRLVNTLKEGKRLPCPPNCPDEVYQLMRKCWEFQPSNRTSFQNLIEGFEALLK
Procedure: as §1, §2

Chain of recombinant JAK3 (amino acids 781-1124) (P52333 781-1124): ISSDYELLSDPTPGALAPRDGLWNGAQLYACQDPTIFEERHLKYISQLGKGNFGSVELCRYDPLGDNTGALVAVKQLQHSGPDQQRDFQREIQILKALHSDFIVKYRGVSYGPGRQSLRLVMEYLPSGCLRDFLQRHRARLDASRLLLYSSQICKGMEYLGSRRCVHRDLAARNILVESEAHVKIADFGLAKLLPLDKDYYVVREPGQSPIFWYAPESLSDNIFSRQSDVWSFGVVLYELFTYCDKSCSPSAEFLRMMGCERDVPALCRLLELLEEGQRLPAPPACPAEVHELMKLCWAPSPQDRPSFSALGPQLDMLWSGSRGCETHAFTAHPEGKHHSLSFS

Row | SMILES | IC50 [1] | IC50 [2] | IC50 [3] | IC50 [4]
1 | COC[C@H](C(=O)Nc1cccc2c(-c3nc(Nc4cccc(S(C)(=O)=O)c4F)ncc3C)c[nH]c12)N1CCN(C)C[C@H]1C [Example 55, (R)-2-((R)-2,4-dimethylpiperazin-1-yl)-N-(3-(2-((2-fluoro-3-(methylsulfonyl)phenyl)amino)-5-methylpyrimidin-4-yl)-1H-indol-7-yl)-3-methoxypropanamide] | > 30000 nM | 26 nM | 293 nM | < 3 nM
2 | Cc1cnc(Nc2cccc(S(C)(=O)=O)c2F)nc1-c1c[nH]c2c(NC(=O)[C@@H](C)N3CCN(C)CC3)cccc12 [Example 2, (R)-N-(3-(2-((2-fluoro-3-(methylsulfonyl)phenyl)amino)-5-methylpyrimidin-4-yl)-1H-indol-7-yl)-2-(4-methylpiperazin-1-yl)propanamide] | > 30000 nM | 32 nM | 7350 nM | ≤ 3 nM
3 | C[C@H](C(=O)Nc1cccc2c(-c3nc(Nc4cccc(S(C)(=O)=O)c4F)ncc3F)c[nH]c12)N1CCCN(C)CC1 [Example 46, (R)-N-(3-(5-fluoro-2-((2-fluoro-3-(methylsulfonyl)phenyl)amino)pyrimidin-4-yl)-1H-indol-7-yl)-2-(4-methyl-1,4-diazepan-1-yl)propanamide] | > 30000 nM | 83 nM | 17800 nM | 19.8 nM
4 | COC[C@@H](C(=O)Nc1cccc2c(-c3nc(Nc4cccc(S(C)(=O)=O)c4F)ncc3C)c[nH]c12)N1CCN(C)CC1 [Example 15, (S)-N-(3-(2-((2-fluoro-3-(methylsulfonyl)phenyl)amino)-5-methylpyrimidin-4-yl)-1H-indol-7-yl)-3-methoxy-2-(4-methylpiperazin-1-yl)propanamide] | > 30000 nM | 465 nM | – | 213 nM
5 | Cc1cnc(Nc2cccc(S(=O)(=O)C3CC3)c2F)nc1-c1c[nH]c2c(NC(=O)[C@@H](C)N3CCN(C)CC3)cccc12 [Example 4] | > 30000 nM | 27 nM | 1600 nM | < 3 nM
6 | COC[C@H](C(=O)Nc1cccc2c(-c3nc(Nc4cccc(S(C)(=O)=O)c4F)ncc3C)c[nH]c12)N1CCN(C)CC1 [Example 16, (R)-N-(3-(2-((2-fluoro-3-(methylsulfonyl)phenyl)amino)-5-methylpyrimidin-4-yl)-1H-indol-7-yl)-3-methoxy-2-(4-methylpiperazin-1-yl)propanamide] | > 30000 nM | 18 nM | – | < 3 nM
7 | Cc1cnc(Nc2cccc(S(C)(=O)=O)c2F)nc1-c1c[nH]c2c(NC(=O)[C@@H](C)N3CCN(CCO)CC3)cccc12 [Example 1, (R)-N-(3-(2-((2-fluoro-3-(methylsulfonyl)phenyl)amino)-5-methylpyrimidin-4-yl)-1H-indol-7-yl)-2-(4-(2-hydroxyethyl)piperazin-1-yl)propanamide] | > 30000 nM | 41 nM | 1580 nM | < 3 nM
8 | COC[C@H](C(=O)Nc1cccc2c(-c3nc(Nc4cccc(S(C)(=O)=O)c4F)ncc3F)c[nH]c12)N1CCN(C)C[C@H]1C [Example 57, (R)-2-((R)-2,4-dimethylpiperazin-1-yl)-N-(3-(5-fluoro-2-((2-fluoro-3-(methylsulfonyl)phenyl)amino)pyrimidin-4-yl)-1H-indol-7-yl)-3-methoxypropanamide] | > 30000 nM | 21 nM | 709 nM | < 3 nM
9 | COC[C@@H](C(=O)Nc1cccc2c(-c3nc(Nc4cccc(S(C)(=O)=O)c4F)ncc3F)c[nH]c12)N1CCN(C)CC1 [Example 34, (S)-N-(3-(5-fluoro-2-((2-fluoro-3-(methylsulfonyl)phenyl)amino)pyrimidin-4-yl)-1H-indol-7-yl)-3-methoxy-2-(4-methylpiperazin-1-yl)propanamide] | > 30000 nM | > 4200 nM | – | 1840 nM
10 | CCOC[C@H](C(=O)Nc1cccc2c(-c3nc(Nc4cccc(S(C)(=O)=O)c4F)ncc3F)c[nH]c12)N1CCN(C)CC1 [Example 63, (R)-3-ethoxy-N-(3-(5-fluoro-2-((2-fluoro-3-(methylsulfonyl)phenyl)amino)pyrimidin-4-yl)-1H-indol-7-yl)-2-(4-methylpiperazin-1-yl)propanamide] | – | 99 nM | – | –
11 | COC[C@H](C(=O)Nc1cccc2c(-c3nc(Nc4cccc(S(C)(=O)=O)c4F)ncc3F)c[nH]c12)N1CCNCC1 [Example 66, (R)-N-(3-(5-fluoro-2-(2-fluoro-3-(methylsulfonyl)phenylamino)pyrimidin-4-yl)-1H-indol-7-yl)-3-methoxy-2-(piperazin-1-yl)propanamide] | – | 51 nM | – | –
12 | CC(C(=O)Nc1cccc2c(-c3nc(Nc4cccc(S(C)(=O)=O)c4F)ncc3F)c[nH]c12)N1CCN(C)C[C@H]1C (stereo in doubt) [Example 49, (R)-2-((R)-2,4-dimethylpiperazin-1-yl)-N-(3-(5-fluoro-2-((2-fluoro-3-(methylsulfonyl)phenyl)amino)pyrimidin-4-yl)-1H-indol-7-yl)propanamide] | > 30000 nM | 93 nM | – | 13 nM
13 | COC[C@@H](C(=O)Nc1cccc2c(-c3nc(Nc4cccc(S(C)(=O)=O)c4F)ncc3F)c[nH]c12)N1CCNCC1 [Example 67, (S)-N-(3-(5-fluoro-2-(2-fluoro-3-(methylsulfonyl)phenylamino)pyrimidin-4-yl)-1H-indol-7-yl)-3-methoxy-2-(piperazin-1-yl)propanamide] | – | 1390 nM | – | –

Continued, values first:

Row | IC50 [1] | IC50 [2] | IC50 [3] | IC50 [4] | SMILES
14 | > 30000 nM | 41 nM | 162 nM | < 3 nM | CC[C@@H](C(=O)Nc1cccc2c(-c3nc(Nc4cccc(S(C)(=O)=O)c4F)ncc3C)c[nH]c12)N1C[C@@H](C)N[C@H](C)C1 [Example 27, (S)-2-((3R,5R)-3,5-dimethylpiperazin-1-yl)-N-(3-(2-((2-fluoro-3-(methylsulfonyl)phenyl)amino)-5-methylpyrimidin-4-yl)-1H-indol-7-yl)butanamide]
15 | > 30000 nM | 866 nM | > 30000 nM | 183 nM | CC[C@@H](C(=O)Nc1cccc2c(-c3nc(Nc4cccc(S(C)(=O)=O)c4F)ncc3F)c[nH]c12)N1C[C@H](C)N(C)[C@@H](C)C1 [Example 23, (S)-N-(3-(5-fluoro-2-(2-fluoro-3-(methylsulfonyl)phenylamino)pyrimidin-4-yl)-1H-indol-7-yl)-2-((3S,5S)-3,4,5-trimethylpiperazin-1-yl)butanamide]
16 | > 30000 nM | 163 nM | > 30000 nM | 42.8 nM | CC[C@@H](C(=O)Nc1cccc2c(-c3nc(Nc4cccc(S(C)(=O)=O)c4F)ncc3C)c[nH]c12)N1CCN(C)CC1C (stereo in doubt) [Example 61, (S)-2-((S)-2,4-dimethylpiperazin-1-yl)-N-(3-(2-((2-fluoro-3-(methylsulfonyl)phenyl)amino)-5-methylpyrimidin-4-yl)-1H-indol-7-yl)butanamide]
17 | > 30000 nM | 38 nM | 456 nM | < 3 nM | CC[C@H](C(=O)Nc1cccc2c(-c3nc(Nc4cccc(S(C)(=O)=O)c4F)ncc3C)c[nH]c12)N1C[C@@H](C)N[C@H](C)C1 [Example 26, (R)-2-((3R,5R)-3,5-dimethylpiperazin-1-yl)-N-(3-(2-((2-fluoro-3-(methylsulfonyl)phenyl)amino)-5-methylpyrimidin-4-yl)-1H-indol-7-yl)butanamide]
18 | > 30000 nM | 147 nM | 7410 nM | 45.2 nM | COC[C@@H](C(=O)Nc1cccc2c(-c3nc(Nc4cccc(S(C)(=O)=O)c4F)ncc3C)c[nH]c12)N1C[C@@H](C)N[C@H](C)C1 [Example 28, (S)-2-((3R,5R)-3,5-dimethylpiperazin-1-yl)-N-(3-(2-((2-fluoro-3-(methylsulfonyl)phenyl)amino)-5-methylpyrimidin-4-yl)-1H-indol-7-yl)-3-methoxypropanamide]
19 | > 30000 nM | 74 nM | 1790 nM | 6.4 nM | CC[C@H](C(=O)Nc1cccc2c(-c3nc(Nc4cccc(S(C)(=O)=O)c4F)ncc3F)c[nH]c12)N1C[C@@H](C)N[C@H](C)C1 [Example 31, (R)-2-((3R,5R)-3,5-dimethylpiperazin-1-yl)-N-(3-(5-fluoro-2-((2-fluoro-3-(methylsulfonyl)phenyl)amino)pyrimidin-4-yl)-1H-indol-7-yl)butanamide]
20 | – | 55 nM | – | – | Cc1cnc(Nc2cccc(S(C)(=O)=O)c2F)nc1-c1c[nH]c2c(NC(=O)[C@@H](C)N3C[C@H](C)N[C@@H](C)C3)cccc12 [Example 9, (R)-2-((3S,5S)-3,5-dimethylpiperazin-1-yl)-N-(3-(2-((2-fluoro-3-(methylsulfonyl)phenyl)amino)-5-methylpyrimidin-4-yl)-1H-indol-7-yl)propanamide]
21 | – | 51 nM | – | – | CC[C@H](C(=O)Nc1cccc2c(-c3nc(Nc4cccc(S(C)(=O)=O)c4F)ncc3C)c[nH]c12)N1C[C@H](C)N(C)[C@@H](C)C1 [Example 20, (R)-N-(3-(2-((2-fluoro-3-(methylsulfonyl)phenyl)amino)-5-methylpyrimidin-4-yl)-1H-indol-7-yl)-2-((3S,5S)-3,4,5-trimethylpiperazin-1-yl)butanamide]
